Results on two substances are retold here after patent US8226943B2, “Antibodies to notch receptors” (OncoMed Pharmaceuticals, Inc., priority 2008, dated 2012).

Test [1] deals with breast tumors T1, PE13, and B51. Nature of the test: Gene Set Enrichment Analysis in treated breast tumors. The test is classed as in vivo, mice. An excerpt:
Several pathways/gene sets that are regulated by antibody 59R1 in tumor cells were identified (Table 9) using Gene Set Enrichment Analysis (Mootha et al., 2003, Nature Genetics 34:267-73; Subramanian et al., 2005, Proc. Natl. Acad. Sci. USA 102:15545-50) in the breast tumors T1, PE13, and B51.

A further test relates to C28 colon tumor cells. Put plainly: C28 colon tumor xenograft growth. The test is classed as in vivo, NOD-SCID mice. Particulars: for C28 Tumor vol relative to the control group / growth of C28 colon tumors: 15 mg/kg once per week; for growth of C28 colon tumors: preventative mode. The procedure: C28 colon tumor cells (10,000 cells per mouse) were injected subcutaneously into the flank region of NOD-SCID mice. Tumors were allowed to grow for 24 days until they had reached an average volume of ˜130 mm^3. Animals were randomized into four treatment groups (n=10/group) and treatments were initiated. One group received a control antibody (1B711) at 10 mg/kg twice per week; one group received irintoecan at 7.5 mg/kg once per week plus the control antibody at 10 mg/kg twice per week; one group received 59R1 at 10 mg/kg twice per week, and the fourth group received the combination of 59R1 at 10 mg/kg twice per week and irinotecan at 7.5 mg/kg once per week. Tumor volumes were measured on the indicated days.
In another embodiment, NOD/SCID mice were injected with C28 colon tumor cells. The mice were treated with anti-Notch2/3 antibody 59R1, anti-Notch2/3 antibody 59R5 or control antibody. Antibodies were dosed at 15 mg/kg once per week in a “preventative” mode where dosing was initiated two days after cell injection.
Tumor volumes and p values for each experiment are shown relative to the control group. The PE13, C28 and Colo205 studies were carried out as described in Example 14. PN8 studies were carried out as described above. For the PN8 experiment, the control is gemcitabine alone and values for 59R1 and 59R5 are the combinations with gemcitabine. Antibodies were dosed once per week at 15 mg/kg for all experiments.

For test [2], the system named is hJAG2-induced Notch2 signaling. Nature of the test: Luciferase reporter assay, hJAG2-induced Notch2 signaling in Hela cells. The test is classed as cell-based, human. Particulars: 40 μg/ml. The procedure:
Luciferase reporter assays were used to assay the 59R1 antibody for its ability to block hDLL4-, hJAG1-, and hJAG2-induced Notch2 signaling.
Hela cells that stably overexpress human Notch2 were transiently transfected with firefly luciferase with a synthetic 8×CBS promoter, pSPORT6 MAML-1, and Renilla luciferase-CMV as a transfection control. Cells were incubated with either 200 ng of immobilized hJAG1 (R&D systems) or hJAG2 (R&D systems) for 16 hours and then assayed using Dual-Glo (Promega) according to the manufacturer's instructions. 59R1 IgG2 antibody was at a concentration of 40 μg/ml. The gamma secretase inhibitor (GSI) dibenzazepine (DBZ) was used as a control at 1 μM.
In general terms: Reporter assays use an easily measured gene product as a stand-in for the process of interest.

The target in a further test is T1, human Notch4 (Homo sapiens, UniProt Q99466).
T1 construct: All Notch constructs were full length; expressed in transfected cells; host or cells: HEK-293, transient, co-transfected with GFP
Nature of the test: FACS binding to transiently transfected HEK-293 cells, human Notch4. The protocol: The ability of the 59R1 IgG2 antibody to cross-react with other Notch receptors was determined by FACS assay using HEK-293 cells transiently transfected with the human Notch1, Notch2, Notch3 or Notch4 expression plasmid and green fluorescent protein (GFP) as a transfection control. GFP positive cells indicated expression of the transgene. The 59R1 IgG2 was added to the cells at 2 μg/ml and detected by PE-conjugated goat anti-human Fc gamma specific (Jackson Immunochemicals). All Notch constructs were full length.

Test [3] has as its target T2, human Notch2 EGF deletion and point mutants (Homo sapiens, UniProt Q04721, DEL375-412).
T2 construct: several point mutants were created within full-length Notch2; expressed in transfected cells; host or cells: HEK-293, transient, co-transfected with GFP
Nature of the test: FACS epitope mapping with full-length hNotch2 deletion and point mutants. The format is binding. As to conditions: HEK-293 transiently transfected. The protocol:
(§1) Point mutations were made within EGF10 of Notch2 fusion proteins and binding of 59R1 to each EGF10 mutant was determined by FACS analysis. HEK-293 cells were transiently transfected with the indicated Notch expression plasmid and GFP as a transfection control. GFP positive cells indicated expression of the transgene. The 59R1 Fab antibody was added to the cells at 10 μg/ml and detected by PE-conjugated goat anti-human (Jackson Immunochemicals).
(§2) FACS analysis of HEK-293 cells transiently transfected with the indicated Notch expression plasmid and GFP as a transfection control. GFP positive cells indicate expression of the transgene. Anti-Notch2 (59M70) was added at 20 μg/ml and detected by PE-conjugated goat anti-mouse (Caltag, #3004-4). 59R1 (IgG2) was added to the cells at 2 μg/ml and detected by PE-conjugated goat anti-human Fc gamma specific (Jackson Immunochemicals). Ligand binding was determined by incubation of the cells with human DLL4 extracellular domain (ECD) fused to rabbit IgG constant region at 5 μg/ml and detected by PE-conjugated donkey anti-rabbit.
(§3) A comparison analysis of the EGF 10 regions of human Notch1, Notch2, and Notch4 and the EGF 9 region of human Notch3 (the equivalent of EGF 10 in the other Notch receptors) was performed to determine likely binding sites for 59R1 (FIG. 14A). […] Binding to the mutants was determined by FACS analysis (FIGS. 14B and 14C). […]

Test [4] deals with T3, human Notch2 EGF deletion and point mutants (Homo sapiens, UniProt Q04721, A388S/H385N/L389N).
T3 construct: several point mutants were created within full-length Notch2; expressed in transfected cells; host or cells: HEK-293, transient, co-transfected with GFP
The test is described as above. As to conditions: FACS on point mutants. The format is binding. The protocol:
as §1, §2, §3

Another test concerns the target human Notch3 (Homo sapiens, UniProt Q9UM47). Put plainly: DLL4-Fc induced receptor activation in transfected PC3 cells, human Notch3. The format is cell-based. More on the design: expressed in transfected cells; host or cells: PC3 tumor cells, transient. As to conditions: immobilized DLL4-Fc. The procedure:
59R5 was determined to have similar activity in blocking Notch2 and Notch3 signaling as 59R1. Receptor activation was determined in luciferase-based assays. PC3 tumor cells were transiently transfected with a human or mouse Notch receptor (human Notch2, murine Notch2, human Notch3, or murine Notch3) and […] inducible reporter construct. Transfected cells were incubated with different concentrations of 59R1 or 59R5 antibody in the presence of passively immobilized DLL4-Fc protein. Notch receptor activation was determined by measuring luciferase activity.

Chain of human Notch3 (Q9UM47 40-2321): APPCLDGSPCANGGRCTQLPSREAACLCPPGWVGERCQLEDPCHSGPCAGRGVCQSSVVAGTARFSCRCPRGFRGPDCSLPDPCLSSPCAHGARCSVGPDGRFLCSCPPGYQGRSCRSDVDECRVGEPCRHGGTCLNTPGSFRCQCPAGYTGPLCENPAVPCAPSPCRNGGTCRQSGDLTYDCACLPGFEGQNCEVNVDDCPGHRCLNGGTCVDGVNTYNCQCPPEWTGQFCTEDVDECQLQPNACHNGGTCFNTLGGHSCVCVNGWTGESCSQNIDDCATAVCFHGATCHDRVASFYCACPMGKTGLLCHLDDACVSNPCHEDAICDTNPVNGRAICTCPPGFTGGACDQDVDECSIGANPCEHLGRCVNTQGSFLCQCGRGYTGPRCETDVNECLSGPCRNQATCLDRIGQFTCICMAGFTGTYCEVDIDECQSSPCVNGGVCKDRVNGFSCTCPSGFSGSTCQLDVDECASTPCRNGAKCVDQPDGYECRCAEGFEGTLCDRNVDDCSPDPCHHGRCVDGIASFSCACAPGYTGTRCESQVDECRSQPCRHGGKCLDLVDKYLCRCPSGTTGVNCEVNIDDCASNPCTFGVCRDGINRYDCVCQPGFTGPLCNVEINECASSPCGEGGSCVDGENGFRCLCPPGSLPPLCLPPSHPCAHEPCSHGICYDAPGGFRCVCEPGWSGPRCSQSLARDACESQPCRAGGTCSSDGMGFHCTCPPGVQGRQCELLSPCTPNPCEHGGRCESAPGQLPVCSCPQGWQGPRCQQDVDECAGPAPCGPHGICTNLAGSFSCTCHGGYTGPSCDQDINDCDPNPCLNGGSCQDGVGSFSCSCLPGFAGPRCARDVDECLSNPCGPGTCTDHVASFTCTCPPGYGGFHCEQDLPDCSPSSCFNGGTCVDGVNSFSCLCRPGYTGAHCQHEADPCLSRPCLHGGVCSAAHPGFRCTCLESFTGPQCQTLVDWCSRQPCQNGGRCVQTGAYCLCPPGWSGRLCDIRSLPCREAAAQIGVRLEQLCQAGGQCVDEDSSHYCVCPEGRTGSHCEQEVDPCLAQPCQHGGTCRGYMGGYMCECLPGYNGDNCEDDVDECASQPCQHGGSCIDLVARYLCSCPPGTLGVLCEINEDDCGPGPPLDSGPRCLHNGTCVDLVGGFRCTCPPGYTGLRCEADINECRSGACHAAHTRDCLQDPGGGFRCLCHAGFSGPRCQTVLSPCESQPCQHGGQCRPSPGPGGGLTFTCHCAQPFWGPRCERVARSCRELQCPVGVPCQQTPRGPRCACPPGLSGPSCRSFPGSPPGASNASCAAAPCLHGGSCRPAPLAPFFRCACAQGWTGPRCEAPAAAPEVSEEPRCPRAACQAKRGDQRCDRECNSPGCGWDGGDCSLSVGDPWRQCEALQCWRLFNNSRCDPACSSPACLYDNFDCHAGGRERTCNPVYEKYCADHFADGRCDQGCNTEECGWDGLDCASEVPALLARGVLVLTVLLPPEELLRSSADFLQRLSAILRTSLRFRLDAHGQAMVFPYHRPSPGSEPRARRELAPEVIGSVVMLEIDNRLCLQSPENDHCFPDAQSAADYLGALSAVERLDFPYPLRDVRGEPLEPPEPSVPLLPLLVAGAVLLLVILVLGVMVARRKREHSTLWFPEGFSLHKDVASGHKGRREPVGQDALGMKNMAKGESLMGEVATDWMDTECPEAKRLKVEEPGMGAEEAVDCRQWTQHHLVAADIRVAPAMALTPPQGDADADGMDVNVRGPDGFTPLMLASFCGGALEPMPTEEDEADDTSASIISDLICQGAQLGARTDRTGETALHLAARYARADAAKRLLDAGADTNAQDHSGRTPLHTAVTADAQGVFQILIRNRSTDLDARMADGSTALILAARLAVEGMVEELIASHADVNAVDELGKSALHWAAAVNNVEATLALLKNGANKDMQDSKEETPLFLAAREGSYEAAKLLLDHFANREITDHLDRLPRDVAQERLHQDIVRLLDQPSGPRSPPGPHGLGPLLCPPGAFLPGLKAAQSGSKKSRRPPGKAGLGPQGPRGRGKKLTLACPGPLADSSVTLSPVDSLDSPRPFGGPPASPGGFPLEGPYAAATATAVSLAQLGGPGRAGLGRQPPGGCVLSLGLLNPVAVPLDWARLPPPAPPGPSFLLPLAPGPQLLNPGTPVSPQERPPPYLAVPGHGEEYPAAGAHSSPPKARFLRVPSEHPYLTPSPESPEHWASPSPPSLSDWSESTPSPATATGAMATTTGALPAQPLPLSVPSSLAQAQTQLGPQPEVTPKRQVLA
T2 sequence (Q04721 with tags, fused parts or gaps DEL375-412): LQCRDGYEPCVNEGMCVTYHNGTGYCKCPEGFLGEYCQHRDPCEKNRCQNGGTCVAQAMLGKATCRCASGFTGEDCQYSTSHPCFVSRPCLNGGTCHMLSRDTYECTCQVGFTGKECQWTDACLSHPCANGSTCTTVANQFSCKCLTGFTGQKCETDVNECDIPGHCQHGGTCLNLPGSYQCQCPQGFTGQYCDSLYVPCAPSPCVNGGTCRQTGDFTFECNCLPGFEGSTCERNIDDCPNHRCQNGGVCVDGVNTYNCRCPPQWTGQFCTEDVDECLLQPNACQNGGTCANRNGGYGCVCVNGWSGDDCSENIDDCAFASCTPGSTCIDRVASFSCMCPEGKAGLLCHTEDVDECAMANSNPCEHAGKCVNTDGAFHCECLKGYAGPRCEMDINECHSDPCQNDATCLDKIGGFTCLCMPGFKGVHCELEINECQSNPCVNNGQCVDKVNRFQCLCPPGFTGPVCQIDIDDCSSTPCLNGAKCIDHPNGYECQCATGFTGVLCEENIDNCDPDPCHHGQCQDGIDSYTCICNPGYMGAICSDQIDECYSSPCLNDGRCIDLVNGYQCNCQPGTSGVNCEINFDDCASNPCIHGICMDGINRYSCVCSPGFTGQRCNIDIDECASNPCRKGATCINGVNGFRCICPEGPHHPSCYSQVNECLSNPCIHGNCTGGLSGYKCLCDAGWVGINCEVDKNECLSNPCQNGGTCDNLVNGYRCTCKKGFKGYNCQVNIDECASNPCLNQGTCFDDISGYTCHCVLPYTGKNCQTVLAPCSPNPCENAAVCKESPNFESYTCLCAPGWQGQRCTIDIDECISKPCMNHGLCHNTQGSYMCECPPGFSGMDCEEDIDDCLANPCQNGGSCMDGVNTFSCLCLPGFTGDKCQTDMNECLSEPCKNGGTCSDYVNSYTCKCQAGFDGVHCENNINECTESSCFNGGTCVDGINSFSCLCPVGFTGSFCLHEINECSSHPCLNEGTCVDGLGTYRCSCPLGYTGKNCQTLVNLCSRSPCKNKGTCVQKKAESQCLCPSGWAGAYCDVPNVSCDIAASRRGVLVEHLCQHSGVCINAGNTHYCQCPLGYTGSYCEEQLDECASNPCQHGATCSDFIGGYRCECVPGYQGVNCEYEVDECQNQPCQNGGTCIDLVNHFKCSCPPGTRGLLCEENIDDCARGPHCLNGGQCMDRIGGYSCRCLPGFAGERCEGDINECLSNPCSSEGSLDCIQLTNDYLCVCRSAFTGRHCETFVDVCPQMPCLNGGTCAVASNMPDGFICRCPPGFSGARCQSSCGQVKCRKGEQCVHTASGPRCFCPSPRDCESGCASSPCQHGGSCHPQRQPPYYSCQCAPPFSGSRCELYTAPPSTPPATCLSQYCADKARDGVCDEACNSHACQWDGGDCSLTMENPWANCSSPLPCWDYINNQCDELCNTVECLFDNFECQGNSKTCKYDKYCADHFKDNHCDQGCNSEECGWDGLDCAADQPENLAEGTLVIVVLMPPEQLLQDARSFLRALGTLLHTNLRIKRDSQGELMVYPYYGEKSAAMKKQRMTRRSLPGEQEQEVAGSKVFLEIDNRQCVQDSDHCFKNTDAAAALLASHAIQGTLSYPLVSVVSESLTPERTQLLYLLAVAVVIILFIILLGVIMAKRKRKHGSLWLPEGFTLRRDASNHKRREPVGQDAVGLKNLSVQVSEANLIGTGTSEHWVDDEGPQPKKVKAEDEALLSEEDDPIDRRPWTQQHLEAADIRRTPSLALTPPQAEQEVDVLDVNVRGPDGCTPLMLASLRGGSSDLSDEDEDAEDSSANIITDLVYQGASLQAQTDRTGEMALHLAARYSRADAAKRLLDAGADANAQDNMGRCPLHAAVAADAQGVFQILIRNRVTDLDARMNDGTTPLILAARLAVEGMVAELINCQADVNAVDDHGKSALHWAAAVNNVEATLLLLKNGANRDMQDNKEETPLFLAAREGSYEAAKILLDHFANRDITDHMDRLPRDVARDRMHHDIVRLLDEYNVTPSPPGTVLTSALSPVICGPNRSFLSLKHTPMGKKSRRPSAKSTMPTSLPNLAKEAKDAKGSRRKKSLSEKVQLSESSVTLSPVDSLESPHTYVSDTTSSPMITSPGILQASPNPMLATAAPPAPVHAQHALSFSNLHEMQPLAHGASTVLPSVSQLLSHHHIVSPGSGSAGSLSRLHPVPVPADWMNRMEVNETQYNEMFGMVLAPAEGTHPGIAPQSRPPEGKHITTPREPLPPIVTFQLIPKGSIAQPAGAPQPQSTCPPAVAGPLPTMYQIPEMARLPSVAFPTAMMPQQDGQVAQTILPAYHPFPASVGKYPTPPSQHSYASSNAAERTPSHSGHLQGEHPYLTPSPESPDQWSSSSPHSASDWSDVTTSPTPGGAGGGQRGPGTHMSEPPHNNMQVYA

Turning to “59R1: human IgG2 antibody binding Notch2 and Notch3; heavy and light chain SEQ ID NO:16 and 18; ATCC PTA-9547”, the “cell cycle gene pathways, myc-activating genes and several stem cell gene sets” value in test [1] is reported as “down-regulated”. Further, in the test on C28 colon tumor cells, the “C28 Tumor vol relative to the control group” value is given as 0.29 and the “growth of C28 colon tumors” value was “inhibited”. Besides, the “C28 tumor growth, combination of 59R1 and irinotecan relative to the irinotecan group” value with C28 colon tumor cells (59R1 10 mg/kg twice per week and irinotecan 7.5 mg/kg once per week) is “inhibited”. The “C28 tumor growth, 59R1 alone relative to the control antibody group” value in the test with C28 colon tumor cells (established tumors, 10 mg/kg twice per week) is on record as “inhibited”. The “hJAG2-induced Notch2 reporter activity” value in test [2] is listed as “inhibit”. For the same substance, in the test with human Notch4, the “binding to full-length human Notch4 (FACS)” value is “does not bind significantly”. The “FACS binding to hNotch2 in the absence of EGF 10 (missing amino acids 375-412)” value in test [3] is listed as “does not”. Besides, the “amino acids necessary for binding to hNotch 2” value in test [4] is “histidine 385, alanine 388, and leucine 389”.
As for “59R5: human antibody that specifically binds human Notch 2 and human Notch 3; heavy and light chain SEQ ID NO:49 and 18; ATCC PTA-10170”, in the test with C28 colon tumor cells, the “C28 Tumor vol relative to the control group” value is given as 0.38 and the “growth of C28 colon tumors” value is recorded as “inhibited”. Further, the “ligand-induced activation of human Notch3 receptor signaling” value with human Notch3 is recorded as “blocked”.
